# Test results from ChEMBL document CHEMBL2086355, “Synthesis and SAR of 2',3'-bis-O-substituted N(6), 5'-bis-ureidoadenosine derivatives: implications for prodrug delivery and mechanism of action” (Bioorg Med Chem Lett, 2012).
# Tests used:
# L1210 = experiment: Antiproliferative activity against mouse L1210 cells after 48 hrs by Coulter counting analysis; assay type: functional, cell-based; conditions: L1210, 48 h
# FM3A = experiment: Antiproliferative activity against mouse FM3A cells after 48 hrs by Coulter counting analysis; assay type: functional, cell-based
# CCRF-CEM = experiment: Antiproliferative activity against human CEM cells after 72 hrs by Coulter counting analysis; assay type: functional, cell-based
# HeLa = experiment: Antiproliferative activity against human HeLa cells after 96 hrs by Coulter counting analysis; assay type: functional, cell-based
# [1] = target: Bone morphogenetic protein receptor type-1B (Homo sapiens) (UniProt O00238); experiment: Inhibition of BMPR1b assessed as activity remaining at 10 uM by competitive binding inhibition assay
# Chain of Bone morphogenetic protein receptor type-1B (Homo sapiens) (O00238 whole entry): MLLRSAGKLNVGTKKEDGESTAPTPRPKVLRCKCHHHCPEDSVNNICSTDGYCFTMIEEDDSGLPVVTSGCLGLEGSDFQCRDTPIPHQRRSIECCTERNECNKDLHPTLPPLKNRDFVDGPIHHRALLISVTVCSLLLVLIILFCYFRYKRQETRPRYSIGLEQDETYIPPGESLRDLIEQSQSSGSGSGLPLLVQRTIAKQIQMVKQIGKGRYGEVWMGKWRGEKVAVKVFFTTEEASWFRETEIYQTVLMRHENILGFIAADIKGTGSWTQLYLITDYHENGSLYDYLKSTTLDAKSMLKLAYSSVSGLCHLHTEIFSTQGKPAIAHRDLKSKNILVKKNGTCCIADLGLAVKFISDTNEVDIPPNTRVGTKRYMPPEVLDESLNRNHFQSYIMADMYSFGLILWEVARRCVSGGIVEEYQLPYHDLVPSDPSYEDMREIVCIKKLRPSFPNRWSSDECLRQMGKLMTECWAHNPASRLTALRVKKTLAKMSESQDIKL
SMILES,IC50 (L1210) [µg/mL],IC50 (CCRF-CEM) [µg/mL],IC50 (HeLa) [µg/mL],Activity [1] [%],IC50 (FM3A) [µg/mL]
CC[Si](CC)(CC)O[C@@H]1[C@H](O[Si](CC)(CC)CC)[C@@H](CNC(=O)NC)O[C@H]1n1cnc2c(NC(=O)Nc3ccccc3)ncnc21,3.8,4.2,3.7,100,3
CCCCCC(=O)O[C@@H]1[C@H](OC(=O)CCCCC)[C@@H](CNC(=O)NC)O[C@H]1n1cnc2c(NC(=O)Nc3ccccc3)ncnc21,9.5,10,15,–,20
CCCCCCCCCC(=O)O[C@@H]1[C@H](OC(=O)CCCCCCCCC)[C@@H](CNC(=O)NC)O[C@H]1n1cnc2c(NC(=O)Nc3ccccc3)ncnc21,> 100,> 100,> 100,–,140
CNC(=O)NC[C@H]1O[C@@H](n2cnc3c(NC(=O)Nc4ccccc4)ncnc32)[C@H](OC(=O)C(C)(C)C)[C@@H]1OC(=O)C(C)(C)C,9.7,20,17,–,15
CNC(=O)NC[C@H]1O[C@@H](n2cnc3c(NC(=O)Nc4ccccc4)ncnc32)[C@H](O[Si](c2ccccc2)(c2ccccc2)C(C)(C)C)[C@@H]1O[Si](c1ccccc1)(c1ccccc1)C(C)(C)C,> 200,≥ 200,104,100,> 200
CCCC(=O)O[C@@H]1[C@H](OC(=O)CCC)[C@@H](CNC(=O)NC)O[C@H]1n1cnc2c(NC(=O)Nc3ccccc3)ncnc21,20,29,58,–,18
CNC(=O)NC[C@H]1O[C@@H](n2cnc3c(NC(=O)Nc4ccccc4)ncnc32)[C@H](O[Si](C(C)C)(C(C)C)C(C)C)[C@@H]1O[Si](C(C)C)(C(C)C)C(C)C,> 200,142,≥ 200,100,> 200
CCCCCCCC(=O)O[C@@H]1[C@H](OC(=O)CCCCCCC)[C@@H](CNC(=O)NC)O[C@H]1n1cnc2c(NC(=O)Nc3ccccc3)ncnc21,11,12,16,–,32
CCCCCCCCCCCCCCCC(=O)O[C@@H]1[C@H](OC(=O)CCCCCCCCCCCCCCC)[C@@H](CNC(=O)NC)O[C@H]1n1cnc2c(NC(=O)Nc3ccccc3)ncnc21,> 100,> 100,> 100,–,> 200

# More lines, main results first:
IC50 (L1210) [µg/mL],IC50 (CCRF-CEM) [µg/mL],IC50 (HeLa) [µg/mL],Activity [1] [%],SMILES,IC50 (FM3A) [µg/mL]
16,19,40,–,CNC(=O)NC[C@H]1O[C@@H](n2cnc3c(N)ncnc32)[C@H](OC(=O)c2ccccc2)[C@@H]1OC(=O)c1ccccc1,36
29,28,73,100,CNC(=O)NC[C@H]1O[C@@H](n2cnc3c(NC(=O)Nc4ccccc4)ncnc32)[C@H](OC(=O)C(C)C)[C@@H]1OC(=O)C(C)C,44
154,> 200,> 200,100,CNC(=O)NC[C@H]1O[C@@H](n2cnc3c(NC(=O)Nc4ccccc4)ncnc32)[C@H](OC(=O)c2ccccc2)[C@@H]1OC(=O)c1ccccc1,61
112,> 200,> 200,–,CNC(=O)NC[C@H]1O[C@@H](n2cnc3c(N)ncnc32)[C@H](OC(C)=O)[C@@H]1OC(C)=O,> 200
97,107,> 200,95,CNC(=O)NC[C@H]1O[C@@H](n2cnc3c(NC(=O)Nc4ccccc4)ncnc32)[C@H](OC(C)=O)[C@@H]1OC(C)=O,150
87,88,99,–,CNC(=O)NC[C@H]1O[C@@H](n2cnc3c(N)ncnc32)[C@H](OC(=O)C(C)C)[C@@H]1OC(=O)C(C)C,107
